Data taken from patent US4472582A, “3,5-Disubstituted-4'-(9-acridinylamino)-methane-sulfon-m-anisidide compounds having antitumor properties” (Development Finance Corporation of New Zealand, priority 1979, dated 1984).

How the values were obtained:
L1210 leukemia = details: in words, literature; cited from earlier work
[1] = test system: TA1537 strain of Salmonella typhimurium; experiment: Mutagenicity assay in TA1537 strain; details: for Mutagenicity D50: Salmonella typhimurium TA1537; for Mutagenicity M50 (percentage mutation frequency at the D50 (×10^4)): Salmonella typhimurium TA1537, at the D50
Source text: The quantitative measures of mutagenicity employed in the present studies are those detailed in L. R. Ferguson and W. A. Denny, J. Med. Chem., 22, 251-255 (1979) of early QSAR developed in this area.
D50 and M50=quantitative measures derived from mutagenicity assays in TA1537 strain of Salmonella typhimurium, defined in L. R. Ferguson and W. A. Denny, J. Med. Chem., 22, 251-255 (1979). (The values of M50 are percentage mutation frequencies at the D50 (×10^4).)

poly. dGC = experiment: Drug-DNA binding, poly.dGC (GC)
Source text: (§1) CT, AT and GC=are relative, inverse measures of compound--DNA binding for calf thymus DNA (CT); poly.dAT (AT) and poly. dGC (GC). (B. C. Baguley and E. M. Falkenhaugh, Nucleic Acids Res., 5, 161-171 (1978), B. F. Cain, B. C. Baguley and W. A. Denny, J. Med. Chem., 21, 658-668 (1978)).

L1210 leukemia (ip) = experiment: Antileukemic screen, L1210 tumour ip, drug ip qd 1-5; format: in vivo, mice (C3H/DBA2 F1 hybrids); parameters: LD10 / D40 (drug dose necessary to provide 40% ILS): unit not given here; details: for ILS Observed: L1210-ip, qd 1-5, Table III; for ILS (increase in life span at the LD10) / LD10 / D40 (drug dose necessary to provide 40% ILS): Tumour L1210-ip, Table II; for ILS (increase in life span at the LD10): Strain F1, Schedule qd 1-5, at LD10; for LD10: Strain F1, Schedule qd 1-5, drug ip; for D40 (drug dose necessary to provide 40% ILS): Strain F1, Schedule qd 1-5; for Antitumour activity in leukemic animals / Dose potency: in words
Source text: (§2) In initial screening a standard drug administration schedule has been employed (ip, qd 1-5) and mice (C3 H/DBA2 F1 hybrids) bred in the laboratory, receive a standard tumor inoculum of 10^5 L1210 cells ip on day 0. After range finding experiments, an LD10 dose has then been derived employing doses separated by 0.05 log.dose units, an acceptable soluble drug formulation (B. F. Cain, R. N. Seelye and G. J. Atwell, J. Med. Chem., 17, 922-930 (1974)) and groups of six tumored mice at each dose level. Deaths occuring before day 8 have been taken as resulting from drug toxicity. From the linear regression relating percent probit-mortality and the logarithms of the corresponding doses, an LD10 value has been derived. Profiles of antileukemic activity have been obtained employing doses separated by 0.09 log.dose intervals. Significant percentage increases in life span of leukemic animals, obtained at and below the LD10 dose, have been linearly correlated with the logarithms of the corresponding doses. The increase in life span (ILS) specified by the life extension-log.dose regression line at the measured LD10 provides a representative measure of antileukemic effectiveness at a standard host load in toxicity (W. A. Denny and B. F. Cain, J. Med. Chem., 21, 430-437 (1978)). For congener selection ILS has been employed as a measure of factor (1) above and LD10 for factor (2). Desirable drug pharmacokinetic properties (factor (3)) have been screened for by employing standard ip drug administration and implanting tumor more remotely; either subcutaneously (sc) or intracerabrally (ic) (B. F. Cain and G. J. Atwell Europ J. Cancer, 10, 539 549 (1974), B. F. Cain and G. J. Atwell, J. Med. Chem., 19 1409-1416 (1976)).
(§3) ILS and LD10=as defined above.
(§4) D40=the drug dose necessary to provide 40% ILS in standard L1210 assays.

[2] = test system: Ames bacterial tester strains TA98, TA100, TA1537; format: cell-based
Source text: As clinical cancer chemotherapy improves, and patients live symptom free for longer intervals, it is obviously important that the agents employed are not carcinogenic and capable of disease re-induction.

poly.dAT = experiment: Drug-DNA binding, poly.dAT (AT)
Source text: as §1

[3] = Water solubility / ease of formulation; format: physicochemical; details: in words
L1210 leukemia (ic) = experiment: Intracerebrally implanted L1210; format: in vivo, mice; details: in words
Source text: as §2

calf thymus DNA = experiment: Drug-DNA binding, calf thymus DNA (CT)
Source text: as §1

[4] = Basic pKa measured spectrophotometrically; format: physicochemical; details: 20% aqueous dimethylformamide, spectrophotometric; read-out: pK (basic pKa)
L1210 leukemia (sc) = experiment: Antileukemic screen, L1210 tumour sc, drug ip qd 1-5; format: in vivo, mice (C3H/DBA2 F1 hybrids); parameters: LD10 / D40 (drug dose necessary to provide 40% ILS): unit not given here; details: for ILS (increase in life span at the LD10): Strain F1, Schedule qd 1-5, at LD10, Table II; for LD10: Strain F1, Schedule qd 1-5, drug ip, Table II; for D40 (drug dose necessary to provide 40% ILS): Strain F1, Schedule qd 1-5, Table II
Source text: as §2, §3, §4

[5] = Lipophilic-hydrophilic balance by reversed phase chromatography; format: physicochemical; details: linearly related to 1-octanol/H2O partition coefficients
Source text: Rm =a measure of the compound's lipophilichydrophilic balance from reversed phase chromatography. Rm is linearly related to partition coefficients obtained in the 1-octanol/H2 O system.

[6] = test system: experimental tumour systems; details: in words, literature; cited from earlier work

SMILES | Antitumour activity in L1210 leukemia (L1210 leukemia) | Mutagenicity D50 [1] | Mutagenicity M50 (percentage mutation frequency at the D50 (×10^4)) [1] | GC (relative, inverse measure of compound-DNA binding) (poly. dGC) | ILS Observed (L1210 leukemia (ip)) | ILS (increase in life span at the LD10) (L1210 leukemia (ip)) | LD10 (L1210 leukemia (ip)) | D40 (drug dose necessary to provide 40% ILS) (L1210 leukemia (ip)) | Antitumour activity in leukemic animals (L1210 leukemia (ip)) | Dose potency (L1210 leukemia (ip)) | Direct mutagenicity [2] | AT (relative, inverse measure of compound-DNA binding) (poly.dAT) | Ease of formulation [3] | Inhibition of intra-cerebrally implanted L1210 (L1210 leukemia (ic)) | CT (relative, inverse measure of compound-DNA binding) (calf thymus DNA) | pKa [4] | ILS (increase in life span at the LD10) (L1210 leukemia (sc)) | LD10 (L1210 leukemia (sc)) | Rm (reversed-phase chromatographic lipophilicity) [5] | D40 (drug dose necessary to provide 40% ILS) (L1210 leukemia (sc)) | other results
CS(=O)(=O)Nc1ccc(Nc2c3ccccc3nc3ccccc23)cc1 [AMSA, 4'-(9-acridinylamino) methanesulfonanilide] | high antitumour activity | – | – | – | – | – | – | – | – | – | – | – | – | – | – | – | – | – | – | – | –
CNC(=O)c1cccc2c(Nc3ccc(NS(C)(=O)=O)cc3OC)c3ccc(C)cc3nc12 [Compound 1] | – | 15.3 | 1.0 % (×10^4) | 2.76 | 200% | 200% | 12 | 3 | unusually high antitumour activity in leukemic animals | good dose potency | lack significant mutagenic activity | 4.74 | easily formulable | inhibit intra-cerebrally implanted L1210 | 5.53 | 6.6 | 30% | 10 | 0.32 | – | Antitumour activity in leukemic animals (L1210 leukemia (ip); listed as 3-methyl-5-methylcarboxamido): high experimental antitumor activity
COc1cc(NS(C)(=O)=O)ccc1Nc1c2ccc(C)cc2nc2c(C(=O)NCC(N)=O)cccc12 [Compound 2] | – | 27.6 | 0 % (×10^4) | 1.84 | 200% | 200% | 120 | 10 | unusually high antitumour activity in leukemic animals | – | – | 6.53 | – | – | 6.53 | 6.58 | 50% | 120 | -0.32 | 60 | –
COc1cc(NS(C)(=O)=O)ccc1Nc1c2ccc(Cl)cc2nc2c(C(=O)NCC(N)=O)cccc12 [Compound 3] | – | 12.4 | 0 % (×10^4) | 4.91 | 120% | 120% | 300 | 25 | – | – | – | – | – | – | – | 5.71 | 65% | 330 | -0.23 | 175 | –
CNC(=O)c1ccc2c(Nc3ccc(NS(C)(=O)=O)cc3OC)c3cccc(C)c3nc2c1 [Compound 4] | – | 43.8 | 0.16 % (×10^4) | – | 150% | 150% | 20 | 1 | – | good dose potency | lack significant mutagenic activity | 3.2 | easily formulable | inhibit intra-cerebrally implanted L1210 | – | 6.64 | 100% | 25 | -0.17 | 15 | Antitumour activity in leukemic animals (L1210 leukemia (ip); listed as 5-methyl-3-methylcarboxamido): high experimental antitumor activity
COc1cc(NS(C)(=O)=O)ccc1Nc1c2ccccc2nc2ccccc12 [m-AMSA, 4'-(9-acridinylamino)-methanesulfon-m-anisidide] | highly effective in treating L1210 leukemia | – | – | – | – | 111% | 9 | 2.5 | – | – | – | – | – | does not | – | – | 45% | 10 | – | 8.0 | Activity in other experimental tumour systems [6]: has shown promise in a number of other experimental tumour systems
